Measurements from the NIST ThermoML archive (doi:10.1016/j.jct.2011.06.016).
Numbers after ± are expanded uncertainties.

Experiment: refractive index (Na D-line) (dimensionless)
Settings: 101.33 kPa, Liquid, Standard Abbe refractometry

Row | Structure (SMILES) | refractive index (298.15 K) | refractive index (313.15 K)
1 | CCO [ethanol] | 1.3625 ± 0.0007 | –
2 | CCCCCCCCCCCCCCCC(=O)OCC [ethyl hexadecanoate] | 1.437 ± 0.001 | –
3 | CCCCCCCCCCCCCCCCCC(=O)OCC [ethyl octadecanoate] | – | 1.436 ± 0.001
4 | OCC(O)CO [glycerol] | 1.471 ± 0.001 | –
5 | O [water] | 1.333 ± 0.001 | –
